In US6448246B1 (dated 2002):

O=C(NCc1ccccc1)C1C=Nc2ccccc2S1 (stereo not shown)
melting point: 160 to 162 °C
